ChEMBL document CHEMBL4402583, “Rational Substitution of ε-Lysine for α-Lysine Enhances the Cell and Membrane Selectivity of Pore-Forming Melittin” (J Med Chem, 2020)
≈ marks a conversion by molar mass, not a printed value. Calls of active or inactive are those of the source. The rule behind the calls is not given here.

Legend:
[1] = tested on: Pseudomonas aeruginosa; experiment: Antibacterial activity against Pseudomonas aeruginosa assessed as reduction in bacterial growth incubated for 24 hrs by broth microdilution method; format: functional
[2] = tested on: Candida albicans; experiment: Antifungal activity against Candida albicans assessed as reduction in fungal growth incubated for 24 hrs by broth microdilution method; format: functional
[3] = tested on: Staphylococcus aureus; experiment: Antibacterial activity against methicillin-sensitive Staphylococcus aureus assessed as reduction in bacterial growth incubated for 24 hrs by broth microdilution method; format: functional
[4] = tested on: Staphylococcus aureus; experiment: Antibacterial activity against methicillin-resistance Staphylococcus aureus assessed as reduction in bacterial growth incubated for 24 hrs by broth microdilution method; format: functional
[5] = tested on: Enterococcus; experiment: Antibacterial activity against vancomycin-resistant Enterococcus assessed as reduction in bacterial growth incubated for 24 hrs by broth microdilution method; format: functional
[6] = tested on: Acinetobacter baumannii; experiment: Antibacterial activity against multidrug-resistant Acinetobacter baumannii assessed as reduction in bacterial growth incubated for 24 hrs by broth microdilution method; format: functional
[7] = tested on: Enterobacteriaceae; experiment: Antibacterial activity against Carbapenem-Resistant Enterobacteriaceae assessed as reduction in bacterial growth incubated for 24 hrs by broth microdilution method; format: functional
[8] = Cytotoxicity against HDF cells assessed as cell viability at 500 ug/ml incubated for 24 hrs by MTS assay relative to control; format: cell-based; conditions: human, HDF cells (NHDF, human dermal fibroblasts); read-out: Activity
[9] = tested on: NHDF; experiment: Cytotoxicity against HDF cells assessed as truncation and reduction in cytoskeleton at 500 ug/ml incubated for 24 hrs by Alexa Fluor […] phalloidin-FITC/Hoescht dye staining based fluorescence microscopic analysis; format: cell-based; conditions: human
[10] = tested on: HaCaT; experiment: Cytotoxicity against human HaCaT cells assessed as truncation and reduction in cytoskeleton at 500 ug/ml incubated for 24 hrs by Alexa Fluor […] phalloidin-FITC/Hoescht dye staining based fluorescence microscopic analysis; format: cell-based
[11] = Hemolytic activity against human erythrocytes assessed as hemoglobin release incubated for 1 hr; format: ADME, cell-based, Erythrocyte; conditions: read-out: HD50
[12] = tested on: Enterococcus faecalis; experiment: Antibacterial activity against vancomycin-resistant Enterococcus faecalis ATCC 29212 assessed as log10 reduction in bacterial viability at 2 to 4 times MIC incubated for 30 mins in MHB medium followed by reincubation on MH agar plate for 24 to 48 hrs by time kill kinetics analysis; format: functional
[13] = tested on: Enterococcus faecalis; experiment: Antibacterial activity against vancomycin-resistant Enterococcus faecalis 1010 assessed as log10 reduction in bacterial viability at 2 to 4 times MIC incubated for 30 mins in MHB medium followed by reincubation on MH agar plate for 24 to 48 hrs by time kill kinetics analysis; format: functional
[14] = tested on: Enterococcus faecalis; experiment: Antibacterial activity against vancomycin-resistant Enterococcus faecalis 1002 assessed as log10 reduction in bacterial viability at 2 to 4 times MIC incubated for 30 mins in MHB medium followed by reincubation on MH agar plate for 24 to 48 hrs by time kill kinetics analysis; format: functional
[15] = tested on: Acinetobacter baumannii; experiment: Antibacterial activity against Acinetobacter baumannii 1001 assessed as reduction in bacterial viability at 2 or 4 times MIC incubated up to 24 hrs in MHB medium followed by reincubation on MH agar plate for 24 to 48 hrs by time kill kinetics assay; format: functional, organism-based
[16] = tested on: Escherichia coli; experiment: Antibacterial activity against Escherichia coli 1004 assessed as reduction in bacterial viability at 2 or 4 times MIC incubated up to 24 hrs in MHB medium followed by reincubation on MH agar plate for 24 to 48 hrs by time kill kinetics assay; format: functional, organism-based
[17] = tested on: Klebsiella pneumoniae; experiment: Antibacterial activity against Klebsiella pneumoniae 1008 assessed as reduction in bacterial viability at 2 or 4 times MIC incubated up to 24 hrs in MHB medium followed by reincubation on MH agar plate for 24 to 48 hrs by time kill kinetics assay; format: functional, organism-based
[18] = tested on: Enterococcus faecalis; experiment: Induction of pore formation in intact vancomycin-resistant Enterococcus faecalis ATCC 29212 cell membrane assessed as SG uptake at 2 times MIC by SG dye based fluorescence based assay; format: organism-based
[19] = tested on: Enterococcus faecalis; experiment: Induction of pore formation in intact vancomycin-resistant Enterococcus faecalis 1002 cell membrane assessed as SG uptake at 2 times MIC by SG dye based fluorescence based assay; format: organism-based
[20] = tested on: Acinetobacter baumannii; experiment: Induction of pore formation in intact Acinetobacter baumannii 1001 cell membrane assessed as SG uptake at 2 times MIC by SG dye based fluorescence based assay; format: organism-based
[21] = tested on: Escherichia coli; experiment: Induction of pore formation in intact Escherichia coli 1004 cell membrane assessed as SG uptake at 2 times MIC by SG dye based fluorescence based assay; format: organism-based
[22] = tested on: Acinetobacter baumannii; experiment: Antibacterial activity against Acinetobacter baumannii ATCC 19606 assessed as reduction in bacterial growth at sublethal concentrations measured after 20 serial passages by broth microdilution method; format: functional, organism-based; conditions: ATCC 19606 = CIP 70.34 = JCM 6841
[23] = tested on: Enterococcus faecalis; experiment: Resistance index, ratio of MIC for vancomycin-resistant Enterococcus faecalis 1010 measured after 18 serial passages by broth microdilution method to MIC for vancomycin-resistant Enterococcus faecalis 1010 incubated for 24 hrs by broth microdilution method; format: functional
[24] = tested on: T-cell; experiment: Immunogenicity in human PBL T cells assessed as increase in IL-2 production at 62.5 or 125 ug/ml incubated for 24 hrs by ELISA; format: ADME, cell-based
[25] = tested on: T-cell; experiment: Immunogenicity in human PBL T cells assessed as increase in IL-4 production at 62.5 or 125 ug/ml incubated for 24 hrs by ELISA; format: ADME, cell-based
[26] = tested on: T-cell; experiment: Immunogenicity in human PBL T cells assessed as increase in IL-5 production at 62.5 or 125 ug/ml incubated for 24 hrs by ELISA; format: ADME, cell-based
[27] = tested on: T-cell; experiment: Immunogenicity in human PBL T cells assessed as increase in IFN-gamma production at 62.5 or 125 ug/ml incubated for 24 hrs by ELISA; format: ADME, cell-based
[28] = Stability of the compound in rabbit tear fluid measured after 2 hrs by UPLC-MS analysis; format: ADME, Oryctolagus cuniculus
[29] = Stability of the compound in rabbit tear fluids assessed as parent compound remaining measured after 4 hrs by UPLC-MS analysis; format: ADME, Oryctolagus cuniculus; conditions: tear fluid, read-out: Stability
[30] = tested on: Oryctolagus cuniculus; experiment: Induction of reepithelialization in injured New Zealand white rabbit cornea assessed as wound healing at 0.3% administered topically for qid measured at day 1 post-injury by fluorescein sodium staining based microscopic imaging analysis (reference value: 89.9 +/- 2.9 %); format: organism-based; conditions: in vivo, topical_or_ocular
[31] = tested on: Oryctolagus cuniculus; experiment: Induction of reepithelialization in injured New Zealand white rabbit cornea assessed as wound healing administered topically for qid measured at day 2 post-injury by fluorescein sodium staining based microscopic imaging analysis (reference value: 76.6 +/- 4.5 %); format: organism-based; conditions: in vivo, topical_or_ocular
[32] = tested on: Oryctolagus cuniculus; experiment: Induction of reepithelialization in injured New Zealand white rabbit cornea assessed as wound healing administered topically for qid measured at day 3 post-injury by fluorescein sodium staining based microscopic imaging analysis (reference value: 63.9 +/- 5.3 %); format: organism-based; conditions: in vivo, topical_or_ocular
[33] = tested on: Oryctolagus cuniculus; experiment: Induction of reepithelialization in injured New Zealand white rabbit cornea assessed as wound healing administered topically for qid measured at day 4 post-injury by fluorescein sodium staining based microscopic imaging analysis (reference value: 48.4 +/- 7.6 %); format: organism-based; conditions: in vivo, topical_or_ocular
[34] = tested on: Oryctolagus cuniculus; experiment: Induction of reepithelialization in injured New Zealand white rabbit cornea assessed as wound healing administered topically for qid measured at day 5 post-injury by fluorescein sodium staining based microscopic imaging analysis (reference value: 39.8 +/- 6.2 %); format: organism-based; conditions: in vivo, topical_or_ocular
[35] = tested on: Oryctolagus cuniculus; experiment: Induction of reepithelialization in injured New Zealand white rabbit cornea assessed as wound healing administered topically for qid measured at day 6 post-injury by fluorescein sodium staining based microscopic imaging analysis (reference value: 24.1 +/- 8.5 %); format: organism-based; conditions: in vivo, topical_or_ocular
[36] = tested on: Oryctolagus cuniculus; experiment: Induction of reepithelialization in injured New Zealand white rabbit cornea assessed as wound healing administered topically for qid measured at day 7 post-injury by fluorescein sodium staining based microscopic imaging analysis (reference value: 8.6 %); format: organism-based; conditions: in vivo, topical_or_ocular
[37] = tested on: Oryctolagus cuniculus; experiment: Induction of reepithelialization in injured New Zealand white rabbit cornea assessed as wound healing administered topically for qid measured at day 8 post-injury by fluorescein sodium staining based microscopic imaging analysis (reference value: 3.8 %); format: organism-based; conditions: in vivo, topical_or_ocular

Q: What does the source list for CC[C@H](C)[C@H](NC(=O)CN)C(=O)NCC(=O)N[C@@H](C)C(=O)N[C@H](C(=O)N[C@@H](CC(C)C)C(=O)NCCC[C@@H](CN)C(=O)N[C@H](C(=O)N[C@@H](CC(C)C)C(=O)N[C@H](C(=O)N[C@H](C(=O)NCC(=O)N[C@@H](CC(C)C)C(=O)N1CCC[C@H]1C(=O)N[C@@H](C)C(=O)N[C@@H](CC(C)C)C(=O)N[C@H](C(=O)N[C@@H](CO)C(=O)N[C@@H](Cc1c[nH]c2ccccc12)C(=O)N[C@H](C(=O)N[C@@H](CCCCN)C(=O)N[C@@H](CCCNC(=N)N)C(=O)NCCC[C@@H](CN)C(=O)N[C@@H](CCCNC(=N)N)C(=O)N[C@@H](CCC(N)=O)C(=O)N[C@@H](CCC(N)=O)C(N)=O)[C@@H](C)CC)[C@@H](C)CC)[C@@H](C)O)[C@@H](C)O)C(C)C)C(C)C?
A: MIC [1]: 8 to 64 µg/mL (≈ 2.81 to 22.5 µM); MIC50 [1]: 32 µg/mL (≈ 11.2 µM); MIC [2]: 16 to 32 µg/mL (≈ 5.62 to 11.2 µM); MIC50 [2]: 32 µg/mL (≈ 11.2 µM); MIC [3]: 16 to 64 µg/mL (≈ 5.62 to 22.5 µM); MIC50 [3]: 32 µg/mL (≈ 11.2 µM); MIC50 [4]: 32 µg/mL (≈ 11.2 µM); MIC [5]: 4 to 16 µg/mL (≈ 1.41 to 5.62 µM); MIC50 [5]: 8 µg/mL (≈ 2.81 µM); MIC [6]: 4 to 8 µg/mL (≈ 1.41 to 2.81 µM); MIC50 [6]: 6 µg/mL (≈ 2.11 µM); MIC [7]: 4 to 128 µg/mL (≈ 1.41 to 45 µM); MIC50 [7]: 16 µg/mL (≈ 5.62 µM); viability at 24 h, 500 ug/ml [8]: 90.7%; Activity [9]: Toxic; Activity [10]: Toxic; HC50 at 1 h [11]: 175 µg/mL; log(activity) [12]: >5; log(activity) [13]: >5; log(activity) [14]: >5; Activity [15]: Active; Activity [16]: Active; Activity [17]: Active; Activity [18]: Active; Activity [19]: Active; Activity [20]: Active; Activity [21]: Active; Activity [22]: Active; Ratio [23]: 16; Activity [24]: Non-Toxic; Activity [25]: Non-Toxic; Activity [26]: Non-Toxic; Activity [27]: Non-Toxic; Stability [28]: Stable; remaining at 4 h [29]: 87.9%; Activity [30]: 90.9%; Activity [31]: 75.4%; Activity [32]: 63.6%; Activity [33]: 50.1%; Activity [34]: 42.9%; Activity [35]: 30.2%; Activity [36]: 12.6%; Activity [37]: 5.2%
